Assay: Heptane/acetonitrile partition (Kpartition) and extraction factor after hydroformylation
Assay type: physicochemical
Conditions: for Kpartition = amount of product in the heptane phase/amount of product in the acetonitrile phase: Examples 4, 6, 8, Ligand B reaction solution in heptane (2 milliliters) extracted with acetonitrile (2 milliliters), gas chromatography; for Kpartition = amount of material in the heptane phase/amount of material in the acetonitrile phase: room temperature; for extraction factor = Kpartition rhodium/Kpartition product: heptane/acetonitrile
Method: To the vessel was then added an equal volume of acetonitrile. The mixture was vigorously shaken for several minutes then allowed to settle and phase separate. The layers were then analyzed for rhodium content and hydroformylation product. The partition coefficient of the catalyst and the product, as defined bay Kpartition=amount of material in the heptane phase/amount of material in the acetonitrile phase, was then determined for each component.
A portion of the reaction solution (2 milliliters) was extracted with acetonitrile (2 milliliters). The phases were separated and the content of ethyl 11-formylundecanoate product was determined in both phases by gas chromatography.
A portion of the reaction solution (2 milliliters) was extracted with acetonitrile (2 milliliters). The phases were separated, and the content of methyl 11-formylundecanoate product in each phase was determined by gas chromatography.
A portion of the reaction solution (2 milliliters) was extracted with acetonitrile (2 milliliters). The phases were separated and the content of butyl 11-formylundecanoate product was determined in both phases by gas chromatography.
A portion of the reaction solution (5 mL) was diluted with heptane (10 mL), shaken at room temperature under nitrogen with acetonitrle (13 mL) and allowed to settle. Two phases with approximately equal volumes were analyzed for rhodium and the hydroformylation product. The partition coefficient of the catalyst and the product defined as Kpartition=amount of material in the heptane phase/amount of material in the acetonitrile phase was determined for each component.

Compound	Kpartition = amount of product in the heptane phase/amount of product in the acetonitrile phase	Kpartition = amount of material in the heptane phase/amount of material in the acetonitrile phase (Example 2, Example 1 reaction solution (Ligand A, ethyl 10-undecenoate), equal volume acetonitrile)	extraction factor = Kpartition rhodium/Kpartition product (Example 2)	Kpartition = amount of material in the heptane phase/amount of material in the acetonitrile phase (Example 9, Ligand A, methyl 10-undecenoate, 5 mL reaction solution diluted with heptane (10 mL), acetonitrile (13 mL))	extraction factor = Kpartition rhodium/Kpartition product (Example 9)
CCOC(=O)CCCCCCCCCCC=O [ethyl 11-formylundecanoate]	0.25	–	–	–	–
CCCCOC(=O)CCCCCCCCCCC=O [butyl 11-formylundecanoate]	0.56	–	–	–	–
rhodium	–	170	680	166	976
COC(=O)CCCCCCCCCCC=O [methyl 11-formylundecanoate]	0.19	–	–	–	–
